In patent EP0295827A2, “Use of 24,25-dihydroxy-cholecalciferol in mending bone fractures” (priority 1987, dated 1988):

Test: Acute toxicity, single oral administration
Settings: mouse, in vivo, ICR male mice, read-out: LD₅₀ value
Protocol: 24,25-(OH)₂-D₃ in ethanol was dissolved in a triglyceride ester of a middle fatty acid so as to have an ethanol concentration of 2 %. The thus-prepared solution was orally administered to 10 ICR male mice (weight: 25 ± 3g). The dosage of 24,25-(OH)₂-D₃ was 100 mg/kg. […] When they were subjected to the biochemical blood test, anatomical examination and pathological histology after they were killed, there was no difference between the treated mice and a controlled group of mice to which only a triglyceride ester of a middle fatty acid containing 2% ethanol had been administered. Since the LD₅₀ value of the oral administration of 24,25-(OH)₂-D₃ was not less than 100 mg/kg, 24,25-(OH)₂-D₃ can be said to be very safe.

Compound: C=C1CCC(O)CC1=CC=C1CCCC2(C)C1CCC2C(C)CCC(O)C(C)(C)O (stereo not shown) [24,25-(OH)₂-D₃, 24,25-dihydroxycholecalciferol]
- LD50 at 336 h: ≥ 100 mg/kg
